Results published in BindingDB's records for doi:10.1016/j.ejmech.2015.08.002 (Ochanomizu University, 2015).

These compounds were tested against Androgen receptor (Mus musculus) (UniProt P19091) (assay: Antagonist activity at wild type AR expressed in mouse SC-3 cells assessed as inhibition of 1 nM DHT-induced cell proliferation after 3 days by WST-8 assay).
Androgen receptor (Mus musculus), sequence (P19091 whole entry, looked up): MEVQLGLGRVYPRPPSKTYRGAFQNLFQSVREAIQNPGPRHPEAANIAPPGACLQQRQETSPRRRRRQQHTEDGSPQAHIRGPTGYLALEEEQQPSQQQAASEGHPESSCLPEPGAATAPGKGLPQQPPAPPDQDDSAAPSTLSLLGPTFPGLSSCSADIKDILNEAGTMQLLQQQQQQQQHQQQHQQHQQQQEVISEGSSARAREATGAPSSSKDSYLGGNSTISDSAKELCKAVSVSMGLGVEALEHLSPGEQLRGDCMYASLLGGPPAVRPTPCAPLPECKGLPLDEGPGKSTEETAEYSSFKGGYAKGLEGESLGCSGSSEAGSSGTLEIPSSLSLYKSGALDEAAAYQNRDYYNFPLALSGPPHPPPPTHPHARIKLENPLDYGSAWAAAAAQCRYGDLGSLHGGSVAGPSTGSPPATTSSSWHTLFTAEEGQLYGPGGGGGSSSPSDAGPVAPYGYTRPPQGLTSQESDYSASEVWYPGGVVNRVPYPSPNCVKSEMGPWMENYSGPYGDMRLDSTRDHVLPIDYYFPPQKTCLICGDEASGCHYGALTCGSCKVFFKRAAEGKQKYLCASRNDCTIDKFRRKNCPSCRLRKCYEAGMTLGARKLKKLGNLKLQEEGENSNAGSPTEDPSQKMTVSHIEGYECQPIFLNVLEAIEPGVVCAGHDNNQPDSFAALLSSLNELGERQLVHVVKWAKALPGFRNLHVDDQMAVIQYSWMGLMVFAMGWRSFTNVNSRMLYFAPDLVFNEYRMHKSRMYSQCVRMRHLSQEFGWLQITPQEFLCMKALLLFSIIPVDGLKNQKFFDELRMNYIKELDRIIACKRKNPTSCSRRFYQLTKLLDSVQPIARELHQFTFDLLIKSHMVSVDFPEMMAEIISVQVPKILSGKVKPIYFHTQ
`O=c1[nH]nc(Cc2c(Cl)ccc(Cl)c2Cl)c2ccccc12` showed an IC50 of 920 nM. In the case of `Cc1ccccc1Cc1n[nH]c(=O)c2ccccc12`, the IC50 is reported as 9540 nM. Work on `CCNc1ccccc1Cc1n[nH]c(=O)c2ccccc12` yielded an IC50 of 3710 nM. Compound `O=c1[nH]nc(Cc2ccccc2[N+](=O)[O-])c2ccccc12` has an IC50 of 530 nM. `O=c1[nH]nc(Cc2ccccc2C(F)(F)F)c2ccccc12` was tested, and the IC50 was 3670 nM. `O=c1[nH]nc(Cc2ccccc2)c2ccccc12` was tested, and the IC50 was 5370 nM. In the case of `O=c1[nH]nc(Cc2ccccc2F)c2ccccc12`, the IC50 is reported as 10500 nM. `O=c1[nH]nc(Cc2c(Cl)cccc2Cl)c2ccccc12` showed an IC50 of 180 nM. Work on `Cc1cccc(C)c1Cc1n[nH]c(=O)c2ccccc12` yielded an IC50 of 1380 nM. `O=c1[nH]nc(Cc2ccccc2Cl)c2ccccc12` [4-(2-chlorobenzyl)phthalazin-1(2H)-one] was tested, and the IC50 was 1260 nM. `O=C(Nc1ccccc1Cc1n[nH]c(=O)c2ccccc12)C(F)(F)F` showed an IC50 of 1010 nM. Compound `CNc1ccccc1Cc1n[nH]c(=O)c2ccccc12` has an IC50 of 9020 nM. `COc1ccccc1Cc1n[nH]c(=O)c2ccccc12` was tested, and the IC50 was 9590 nM. With `Nc1ccccc1Cc1n[nH]c(=O)c2ccccc12` the IC50 was 220 nM. `CN(C)c1ccccc1Cc1n[nH]c(=O)c2ccccc12` showed an IC50 of 1950 nM. In the case of `CCN(CC)c1ccccc1Cc1n[nH]c(=O)c2ccccc12`, the IC50 is reported as 1660 nM. Work on `O=c1[nH]nc(Cc2c(F)cccc2F)c2ccccc12` yielded an IC50 of 3760 nM.
